The structures appear in SMILES notation.

In this experiment the test system is lupus. The experiment is described as follows: SLE (lupus) model: kidney and spleen weight. The following applies: Week 19. Format: in vivo, MRL/MpJ-Faslpr mice. The procedure:
Female MRL/MpJ-Faslpr mice (The Jackson Laboratory) were used to assess the efficacy of Compound A in treating lupus. Starting when animals were 10 weeks of age, protein concentration in urine was measured using urine dipsticks.
At the start of the study, each group in the study had two animals that were 9 weeks old, and all others were 10 weeks old. Dosing of all animals with the test compounds began when the older animals were 11 weeks old. […] […] Dosing was at a consistent time each dosing day throughout the study.
Compound A may be formulated as illustrated in Experimental Method A (see Table 2E.). […] A stock solution of Compound A in DMSO (stock solution concentration of Compound A of 40 mg/mL) was prepared and aliquots for weekly preparations were frozen at −20° C. On each preparation day, a stock solution aliquot was thawed and diluted with other vehicle components to the desired concentration. Formulated Compound A and vehicle were at room temperature for dosing.
The study began when the older animals were 11 weeks old, and concluded when the older animals were 19 weeks old. Body weight was recorded once a week, with the exception of two weight measurements taken the first week of the study (when the older animals were 11 weeks old). Proteinuria was measured in the urine of animals with urine dipsticks once a week, starting when the older animals were 10 weeks old. […] Blood samples were taken retro-orbitally at the start of the study to establish a baseline (15 animals, 3 per group), and when the older animals were 16 weeks (all animals) and when animals were 19 weeks (all animals) at the conclusion of the study. Blood urea nitrogen (BUN) was measured in all animals at study termination in blood samples. After blood collection, animals were euthanized, perfused with PBS, and the left kidneys were collected and weighed and fixed in 10% buffered formalin. Left kidneys were then processed to a formalin-fixed, paraffin-embedded (FFPE) block, and histology was analyzed in Periodic Acid-Schiff-stained sections (1 section per slide), using the criteria described in Alperovich et al., Lupus, 16:18-24 (2007). Right kidneys were weighed and snap-frozen at −80° C. Spleens were also collected and weighed. SLE in animals treated with a BET inhibitor and vehicle.

`Cn1cc(-c2ccccc2)c(-c2cn(C)c(=O)c3[nH]c(-c4cnn(C(F)(F)F)c4)cc23)cc1=O` [Compound A, 6-methyl-4-(1-methyl-2-oxo-5-phenyl-1,2-dihydropyridin-4-yl)-2-(1-(trifluoromethyl)-1H-pyrazol-4-yl)-1,6-dihydro-7H-pyrrolo[2,3-c]pyridin-7-one]: the “Mean Kidney Weight” value runs as follows: (Compound A 1 mg/kg PO QD) 245 mg; (Compound A 3 mg/kg PO QD) 245 mg; (Compound A 10 mg/kg PO QD) 225 mg. In addition, the “Mean Spleen Weight” value turned out to be 241 mg (Compound A 1 mg/kg PO QD), 361 mg (Compound A 3 mg/kg PO QD) and 170 mg (Compound A 10 mg/kg PO QD). The “Kidney weights relative to controls” value (Compound A (10 mg/kg) and cyclophosphamide groups) is reported as “slightly decreased kidney weights”. In addition, the “Spleen weights relative to vehicle controls” value (Compound A (all tested doses) and cyclophosphamide) was “decreased spleen weights”.
